{"source": "patent US6492137B1", "about": "“Response element compositions and assays employing same” (The Salk Institute for Biological Studies, priority 1989, dated 2002)", "target": "T1, RARα (Homo sapiens, UniProt P10276)", "T1 sequence (P10276 1-462)": "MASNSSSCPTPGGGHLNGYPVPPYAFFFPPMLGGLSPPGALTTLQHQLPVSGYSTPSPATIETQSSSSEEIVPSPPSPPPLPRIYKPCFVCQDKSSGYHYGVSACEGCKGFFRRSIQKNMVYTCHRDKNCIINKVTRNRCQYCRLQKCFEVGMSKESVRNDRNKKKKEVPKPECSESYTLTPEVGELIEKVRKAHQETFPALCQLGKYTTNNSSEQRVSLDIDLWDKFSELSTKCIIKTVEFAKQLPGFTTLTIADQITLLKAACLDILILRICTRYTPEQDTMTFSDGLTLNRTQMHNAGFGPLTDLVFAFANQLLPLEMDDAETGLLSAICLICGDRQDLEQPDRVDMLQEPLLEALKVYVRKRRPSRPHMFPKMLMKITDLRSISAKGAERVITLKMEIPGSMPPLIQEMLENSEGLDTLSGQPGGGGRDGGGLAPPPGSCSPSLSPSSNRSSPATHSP", "assay": "ΔSV-CAT reporter cotransfection assay in CV-1 cells with RARα expression plasmid, ±RA", "assay_type": "cell-based", "design": "expressed in transfected cells; host or cells: CV-1 (monkey kidney)", "details": "RA 1 μM", "description": "Receptor expression plasmids used in the following cotransfection assays have been described previously (pRShTRβ [see Thompson, et al., Proc. Natl. Acad. Sci. U.S.A. 86: 3494-3498 (1989)]; pRShRARα [see Giguere, et al., Nature 330: 624-629 (1987)]; pRShRARβ and pRshRARγ [see Ishikawa, et al., Mol. Endocrinol, 4: 837-844 (1990)]; and pRShVDR, [Schule, et al., Cell 61: 497-504 (1990)]. A basal reporter plasmid ΔSV-CAT was constructed by replacing the TK promoter in TK-CAT [Damm, et al., Nature 339: 593-597 (1989)] with the SphI-HindIII fragment of the SV40 early promoter. All of the recombinant CAT reporter plasmids used herein harbor a single copy of the indicated oligonucleotides at the unique HindIII site upstream of the SV40 promoter. Identity of the inserted oligonucleotides was confirmed by sequencing. To improve production of receptor proteins in COS cells, a new eukaryotic expression vector pCMX was prepared by modifying the plasmid CDM8 [Seed, B., Nature 329: 840-842 (1987)]. The CDM8 was cut with MluI and StuI in order to release the DNA fragment encoding the CMV/T7 promoter, SV40 small t intron/poly A signal, polyoma virus enhancer/origin, and SV40 enhancer/origin. The resulting fragment was ligated to a larger fragment of PvuII-digested PUC19. An internal deletion was introduced between unique BamHI and BclI sites present in the DCM8 portion. The stuffer sequence flanked by XbaI sites was replaced with a synthetic polylinker coding for 5′-KpnI/Asp718-EcoRV-BamHI -MscI-NheI-3′, followed by a stretch of 5′-[…]-3′ (SEQ ID NO:48) which can function as a universal termination signal for protein translation. The coding sequence of the luciferase [de Wet, et al., Mol. Cell. Biol. 7: 725-737 (1987)] and human TRβ, RARα, and VDR was placed in the polylinker region of the pCMX, generating pCMX-LUC, Pcmx-Htrβ, pCMX-hRARα, and pCMX-hVDR, respectively. The translation start site of the RARα was modified to […] by attaching the synthetic linker encoding a consensus translation start signal [Hollenberg, et al., Cell 55: 899-906 (1988)]. […]"}
{"substance": "MHC-N: 23-nucleotide core of the wild-type sequence (MHC-TRE) (SEQ ID NO:14) (AGCTGGAGGTGACAGGAGGACAGCAAGCT; DNA, backbone not given here; further chemistry not fully specified)", "values": [{"measurement": "RA response (in words)", "value": "not RA response"}]}
